For data set [1], the target named is T1, human 5-HT1A receptor (Homo sapiens, UniProt P08908).
T1 sequence (P08908 1-422): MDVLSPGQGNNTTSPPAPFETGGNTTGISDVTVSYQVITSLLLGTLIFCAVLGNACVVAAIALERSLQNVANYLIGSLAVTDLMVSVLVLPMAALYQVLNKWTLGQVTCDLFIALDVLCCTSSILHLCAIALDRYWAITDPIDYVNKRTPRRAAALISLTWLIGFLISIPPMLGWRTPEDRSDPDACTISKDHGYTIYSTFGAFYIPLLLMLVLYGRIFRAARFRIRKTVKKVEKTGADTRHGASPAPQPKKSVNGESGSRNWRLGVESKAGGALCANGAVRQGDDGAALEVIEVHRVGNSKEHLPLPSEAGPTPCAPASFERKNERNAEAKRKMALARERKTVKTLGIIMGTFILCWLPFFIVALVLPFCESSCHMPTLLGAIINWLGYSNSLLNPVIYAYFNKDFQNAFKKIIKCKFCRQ
Briefly: Human 5-HT1A radioligand binding assay ([3H]-8-Hydroxy-DPAT). Set-up: expressed in transfected cells; host or cells: HTR1A&Gα15-CHO. As for the experimental part:
The objective of this study was to evaluate the binding properties of test compounds on 5-hydroxytryptamine receptor 1A (5-HT1A).
1. The assay buffer was prepared following Table 21 below.
2. 8 doses of reference and test compounds were prepared starting from 10 mM stock solution as required by 5-fold serial dilutions with 100% (v/v) DMSO.
3. UniFilter-96 GF/B plate was pretreated: • i. 50 μl/well of 0.5% (v/v) PEI was added to UniFilter-96 G F/B plates. The plates were sealed and incubated at 4° C. for 3 hrs. • ii. After incubation, the plates were washed 3 times with ice-cold wash buffer (50 mM Tris, pH7.4).
4. Assay plate was prepared: • i. Cell membrane was diluted with assay buffer and 100 μl/well was added to 96 round well plates to reach a concentration of 20 μg/well. • ii. 8 concentrations of reference or test compounds were prepared and 50 μl/well was added to 96 round deep well plates. • iii. [3H]-8-Hydroxy-DPAT was diluted with assay buffer to 2 nM (4×final concentration) and 50 μl/well was added to 96 round well plates.
5. The plate was centrifuged at 1000 rpm for 30 secs and then agitated at 600 rpm, R.T. for 5 min.
6. The plates were sealed, and the plate was incubated at 27° C. for 90 min.
7. The incubation was stopped by vacuum filtration onto GF/B filter plates followed by 4 times washing with ice-cold wash buffer (50 mM Tris, pH7.4).
9. The filter plates were sealed and 40 μl/well of scintillation cocktail was added.
10. The plate was read by using a Microbeta^2 microplate counter.
1. For reference and test compounds, the results were expressed as % Inhibition, using the normalization equation: N=100-100x(U-C2)/(C1-C2), where U is the unknown value, C1 is the average of high controls, and C2 is the average of low controls.
2. The IC50 was determined by fitting percentage of inhibition as a […] of compound concentrations with Hill equation using XLfit.
The objective of this study was to evaluate the binding properties of test compounds on 5-hydroxytryptamine receptor 1A (5-HTA).
1. The assay buffer was prepared following Table 50 below.
3. UniFilter-96 G FIB plate was pretreated: • i. 50 μl/well of 0.5% (v/v) PEI was added to UniFilter-96 G FIB plates. The plates were sealed and incubated at 4° C. for 3 hrs. • ii. After incubation, the plates were washed 3 times with ice-cold wash buffer (50 mM Tris, pH7.4).
6. The plates were sealed and the plate was incubated at 27° C. for 90 min.

The nature of data set [2]: Pharmacokinetic studies in rat (i.v.). In kind it is in vivo. To be noted: rat plasma; for Apparent t1/2 / half-life: estimated from 2 points only; for concentration at 0.25 h / concentration at 1 h / half-life / AUC(0-t) / concentration at 4 h: male, Sprague-Dawley, rat, plasma, iv; for concentration at 0.25 h / concentration at 1 h / concentration at 4 h: read-out: Plasma concentration; for half-life: read-out: Apparent t1/2 (converted); for AUC(0-t): read-out: AUC0-tlast. Here is the method: Animals: Male Sprague-Dawley rats (˜225-350 g) from Charles River Labs were acclimatized for a minimum of 5 days prior to start of study procedures. Body weights were recorded on the day of dosing.
Any abnormalities were documented including presence/absence of wet dog shakes/back muscle contractions (WDS/BMC).
Dosing: Formulations were administered intravenously (i.v.) via the tail vein using a 25 G needle connected to a 1 cc syringe.
The Compounds of Formula (I) were freshly prepared at the appropriate concentrations in 5% Tween-80 in saline.
Blood collection time (h): 0.25, 1 and 4.
Volume/time-point: ˜0.25 mL […] (saphenous vein).
Instrumentation: AB Sciex QTRAP 4000 or 6500 MS/MS system equipped with an LC system with a binary pump, a solvent degasser, a thermostatted column compartment and a multiplate autosampler.
Analysis software: Phoenix® WinNonlin® 8.3 (Pharsight, Certara, Mountainview, CA).
Analysis methods: non-compartmental analysis, linear up/log down trapezoidal rule.
PK parameters: t1/2 and AUC0-tlast were be estimated.
Volume/time-point: ˜0.25 mL (saphenous vein).
PK parameters: t1/2 and AUC0-tlast were estimated.

Setting [3] is: I-1 1.10 mg/kg i.v., individual rats R04-R06, 1.1 mg/kg.
[4] abbreviates: 1.1 mg/kg, I-1 1.10 mg/kg i.v., Mean ± SD.
[5] abbreviates: 1.1 mg/kg, I-1 1.10 mg/kg i.v., individual rats R04-R06.
[6] abbreviates: I-12 1.2 mg/kg i.v., individual rats R01-R03, 1.2 mg/kg.
[7] abbreviates: 1.2 mg/kg, I-12 1.2 mg/kg i.v., individual rats R01-R03.
[8] abbreviates: I-13 1.14 mg/kg i.v., individual rats R04-R06, 1.14 mg/kg.
Setting [9] is: 1.14 mg/kg, I-13 1.14 mg/kg i.v., individual rats R04-R06.

Where “and” joins values, the source holds several entries; their conditions need not be identical. Equal entries are not always repeated. Where two headings read alike, the source gives them in different places.

Broadly, the IC50 is the concentration that inhibits the measured activity by half. A high value points to weaker potency in that assay. For `[2H]C([2H])([2H])N(CCc1c[nH]c2ccc(SC)cc12)C([2H])([2H])[2H]` [Compound I-1, N,N-Bis(methyl-d3)-2-(5-(methylthio)-1H-indol-3-yl)ethan-1-amine], in data set [1], the IC50 stood at 3.9 nM. Also, the “Plasma concentration” value was 15.7 ng/mL and 16.9 ng/mL in data set [2] (I-1 1.10 mg/kg i.v., 0.25 h, individual rats R04-R06, 1.1 mg/kg); 0.835 ng/mL and 0.354 ng/mL and 0.298 ng/mL in data set [2] (I-1 1.10 mg/kg i.v., 1 h, individual rats R04-R06, 1.1 mg/kg). Also, in data set [2] (I-1 1.10 mg/kg i.v., 4 h, individual rats R04-R06), the “Plasma concentration (ng/mL)” value is on record as “BLQ (BLQ denotes below the lower limit of quantitation (0.5 ng/mL))”. Moreover, the “AUC0-tlast” value in data set [2] (setting [3]) is 10.9 ng·h/mL and 12.0 ng·h/mL. Also, the “Apparent t1/2” value in data set [2] (setting [3]) is 8.22 min and 7.74 min. Besides, the concentration at 0.25 h came to 16.4 ± 0.624 ng/mL in data set [2] (1.1 mg/kg, I-1 1.10 mg/kg i.v., 0.25 h, Mean ± SD) and 16.6 ng/mL in data set [2] (1.1 mg/kg, I-1 1.10 mg/kg i.v., 0.25 h, individual rats R04-R06). The concentration at 1 h in data set [2] (1.1 mg/kg, I-1 1.10 mg/kg i.v., 1 h, Mean ± SD) came out at 0.496 ± 0.295 ng/mL. Besides, the half-life in data set [2] (setting [4]) was 8.82 ± 1.44 min; in data set [2] (setting [5]) it was 10.4 min. The AUC(0-t) worked out at 11.3 ± 0.587 ng·h/mL in data set [2] (setting [4]) and 11.1 ng·h/mL in data set [2] (setting [5]).

In the case of `CCN(CC)CCc1c[nH]c2ccc(SC)cc12` [Compound I-12, N,N-Diethyl-2-(5-(methylthio)-1H-indol-3-yl)ethan-1-amine], the IC50 in data set [1] is 2 nM. Besides, the “Plasma concentration” value in data set [2] (I-12 1.2 mg/kg i.v., 0.25 h, individual rats R01-R03, 1.2 mg/kg) was 53.6 ng/mL and 72.4 ng/mL and 30.1 ng/mL; in data set [2] (I-12 1.2 mg/kg i.v., 1 h, individual rats R01-R03, 1.2 mg/kg), 36.4 ng/mL and 29.7 ng/mL; in data set [2] (I-12 1.2 mg/kg i.v., 4 h, individual rats R01-R03, 1.2 mg/kg) it was 3.88 ng/mL and 2.55 ng/mL and 6.48 ng/mL. In data set [2] (setting [6]), the “AUC0-tlast” value is 97.8 ng·h/mL and 75.7 ng·h/mL. Also, in data set [2] (setting [6]), the “Apparent t1/2” value is 46.7 min. The concentration at 0.25 h in data set [2] (1.2 mg/kg, I-12 1.2 mg/kg i.v., 0.25 h, Mean ± SD) is 52 ± 21.2 ng/mL. The concentration at 1 h is 31.2 ± 4.6 ng/mL in data set [2] (1.2 mg/kg, I-12 1.2 mg/kg i.v., 1 h, Mean ± SD) and 27.6 ng/mL in data set [2] (1.2 mg/kg, I-12 1.2 mg/kg i.v., 1 h, individual rats R01-R03). In data set [2] (1.2 mg/kg, I-12 1.2 mg/kg i.v., 4 h, Mean ± SD), the concentration at 4 h came out at 4.3 ± 2 ng/mL. For the same compound, the AUC(0-t) in data set [2] (1.2 mg/kg, I-12 1.2 mg/kg i.v., Mean ± SD) was 84.7 ± 11.6 ng·h/mL; in data set [2] (setting [7]), 80.6 ng·h/mL. Also, the half-life is 60.6 min in data set [2] (setting [7]) and 53.6 min in data set [2] (1.2 mg/kg, I-12 1.2 mg/kg i.v., mean (n = 2)).

In data set [1], `CCN(C)CCc1c[nH]c2ccc(SC)cc12` [Compound I-13, N-Ethyl-N-methyl-2-(5-(methylthio)-1H-indol-3-yl)ethan-1-amine] returned an IC50 of 2 nM. The “Plasma concentration” value is 45.7 ng/mL and 86.5 ng/mL and 113 ng/mL in data set [2] (I-13 1.14 mg/kg i.v., 0.25 h, individual rats R04-R06, 1.14 mg/kg); 46.7 ng/mL and 29.7 ng/mL in data set [2] (I-13 1.14 mg/kg i.v., 1 h, individual rats R04-R06, 1.14 mg/kg); 3.51 ng/mL and 1.11 ng/mL and 0.449 ng/mL in data set [2] (I-13 1.14 mg/kg i.v., 4 h, individual rats R04-R06, 1.14 mg/kg). Also, the “AUC0-tlast” value in data set [2] (setting [8]) is 109 ng·h/mL and 103 ng·h/mL. Further, in data set [2] (setting [8]), the “Apparent t1/2” value was 28.6 min. In addition, the concentration at 0.25 h in data set [2] (1.14 mg/kg, I-13 1.14 mg/kg i.v., 0.25 h, Mean ± SD) came out at 81.7 ± 33.9 ng/mL. For the same compound, the concentration at 1 h in data set [2] (1.14 mg/kg, I-13 1.14 mg/kg i.v., 1 h, Mean ± SD) came to 42.9 ± 11.7 ng/mL; in data set [2] (1.14 mg/kg, I-13 1.14 mg/kg i.v., 1 h, individual rats R04-R06), 52.2 ng/mL. In addition, the concentration at 4 h in data set [2] (1.14 mg/kg, I-13 1.14 mg/kg i.v., 4 h, Mean ± SD) stood at 1.69 ± 1.61 ng/mL. Moreover, the AUC(0-t) in data set [2] (1.14 mg/kg, I-13 1.14 mg/kg i.v., Mean ± SD) stood at 105 ± 3.64 ng·h/mL; in data set [2] (setting [9]), 102 ng·h/mL. Also, the half-life in data set [2] (setting [9]) was 35.1 min; in data set [2] (1.14 mg/kg, I-13 1.14 mg/kg i.v., mean (n = 2)) it was 31.9 min.
